Source: patent publication US8338465B2, “Cyclic carboxylic acid rhodanine derivatives for the treatment and prevention of tuberculosis” (priority 2006, dated 2012)

Molecular target: T1, dihydrolipoamide acyltransferase (DlaT) (Mycobacterium tuberculosis, UniProt P9WIS7)
T1 sequence (P9WIS7 1-553): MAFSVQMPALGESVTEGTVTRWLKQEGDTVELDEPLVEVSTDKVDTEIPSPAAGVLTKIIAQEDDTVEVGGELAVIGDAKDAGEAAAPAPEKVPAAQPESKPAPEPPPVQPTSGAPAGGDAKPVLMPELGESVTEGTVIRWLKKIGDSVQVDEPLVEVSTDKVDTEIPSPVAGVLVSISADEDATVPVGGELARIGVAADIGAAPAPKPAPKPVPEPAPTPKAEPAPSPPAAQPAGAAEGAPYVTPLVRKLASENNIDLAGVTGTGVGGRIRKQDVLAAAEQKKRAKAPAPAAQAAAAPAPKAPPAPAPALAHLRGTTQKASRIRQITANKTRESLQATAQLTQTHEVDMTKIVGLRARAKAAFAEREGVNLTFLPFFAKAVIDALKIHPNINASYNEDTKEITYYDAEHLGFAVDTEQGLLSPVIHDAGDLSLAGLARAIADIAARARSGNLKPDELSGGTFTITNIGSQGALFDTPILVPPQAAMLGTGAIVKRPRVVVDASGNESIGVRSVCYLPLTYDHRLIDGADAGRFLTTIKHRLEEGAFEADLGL
Test: DlaT inhibition (Dlat IC50); DTNB peroxidase assay with Lpd, DlaT and AhpD
Type: biochemical
Conditions: Dlat IC50 category

In the case of `Cc1ccc(-c2ccc(C=C3SC(=S)N(C4CCC(C(=O)O)CC4)C3=O)cc2)cc1` (stereo not shown) [Compound C73, 4-{5-[1-(4′-methyl-biphenyl-4-yl)-methylidene]-4-oxo-2-thioxo-thiazolidin-3-yl}-cyclohexanecarboxylic acid], the IC50 is reported as less than 10 µM.

`COc1ccc(C)cc1-c1ccc(C=C2SC(=S)N(C3CCCC(C(=O)O)C3)C2=O)o1` (stereo not shown) [Compound C74, 3-{5-[5-(2-Methoxy-5-methyl-phenyl)-furan-2-ylmethylene]-4-oxo-2-thioxo-thiazolidin-3-yl}-cyclohexanecarboxylic acid] gave an IC50 of 11 to 40 µM.

With `COc1ccc(C)cc1-c1ccc(C=C2SC(=S)N(C3CCC(C(=O)O)CC3)C2=O)o1` (stereo not shown) [Compound C75, 4-{5-[5-(2-Methoxy-5-methyl-phenyl)-furan-2-ylmethylene]-4-oxo-2-thioxo-thiazolidin-3-yl}-cyclohexanecarboxylic acid] the IC50 was 11 to 40 µM.

In the case of `CC(=O)Nc1ccc(-c2ccc(C=C3SC(=S)N(C4CCC(C(=O)O)CC4)C3=O)o2)cc1` (stereo not shown) [Compound C76, 4-{5-[1-[5-(4-acetylamino-phenyl)-furan-2-yl]-methylidene]-4-oxo-2-thioxo-thiazolidin-3-yl}-cyclohexanecarboxylic acid], the IC50 is reported as less than 10 µM.

For `CCCCc1ccc(-c2ccc(C=C3SC(=S)N(C4CCCC(C(=O)O)C4)C3=O)o2)cc1` (stereo not shown) [Compound C77, 3-{5-[1-[5-(4-butyl-phenyl)-furan-2-yl]-methylidene]-4-oxo-2-thioxo-thiazolidin-3-yl}-cyclohexanecarboxylic acid], the IC50 was less than 10 µM.

For `CCCCc1ccc(-c2ccc(C=C3SC(=S)N(C4CCC(C(=O)O)CC4)C3=O)o2)cc1` (stereo not shown) [Compound C78, 4-{5-[1-[5-(4-butyl-phenyl)-furan-2-yl]-methylidene]-4-oxo-2-thioxo-thiazolidin-3-yl}-cyclohexanecarboxylic acid], the IC50 was less than 10 µM.

`CCCc1ccc(-c2ccc(C=C3SC(=S)N(C4CCCC(C(=O)O)C4)C3=O)o2)cc1` (stereo not shown) [Compound C79, 3-{5-[1-[5-(4-propyl-phenyl)-furan-2-yl]-methylidene]-4-oxo-2-thioxo-thiazolidin-3-yl}-cyclohexanecarboxylic acid] was tested, and the IC50 was 11 to 40 µM.

`CCCc1ccc(-c2ccc(C=C3SC(=S)N(C4CCC(C(=O)O)CC4)C3=O)o2)cc1` (stereo not shown) [Compound C80, 4-{5-[1-[5-(4-propyl-phenyl)-furan-2-yl]-methylidene]-4-oxo-2-thioxo-thiazolidin-3-yl}-cyclohexanecarboxylic acid] was tested, and the IC50 was 11 to 40 µM.

`CNS(=O)(=O)c1ccc(-c2ccc(C=C3SC(=S)N(C4CCCC(C(=O)O)C4)C3=O)o2)cc1` (stereo not shown) [Compound C83, 3-{5-[5-(4-Methylsulfamoyl-phenyl)-furan-2-ylmethylene]-4-oxo-2-thioxo-thiazolidin-3-yl}-cyclohexanecarboxylic acid] was tested, and the IC50 was 11 to 40 µM.

Compound `CNS(=O)(=O)c1ccc(-c2ccc(C=C3SC(=S)N(C4CCC(C(=O)O)CC4)C3=O)o2)cc1` (stereo not shown) [Compound C84, 4-{5-[5-(4-Methylsulfamoyl-phenyl)-furan-2-ylmethylene]-4-oxo-2-thioxo-thiazolidin-3-yl}-cyclohexanecarboxylic acid] has an IC50 of less than 10 µM.

In the case of `CN(C)S(=O)(=O)c1ccc(-c2ccc(C=C3SC(=S)N(C4CCCC(C(=O)O)C4)C3=O)o2)cc1` (stereo not shown) [Compound C85, 3-{5-[5-(4-Dimethylsulfamoyl-phenyl)-furan-2-ylmethylene]-4-oxo-2-thioxo-thiazolidin-3-yl}-cyclohexanecarboxylic acid], the IC50 is reported as 41 to 80 µM.

`CN(C)S(=O)(=O)c1ccc(-c2ccc(C=C3SC(=S)N(C4CCC(C(=O)O)CC4)C3=O)o2)cc1` (stereo not shown) [Compound C86, 4-{5-[5-(4-Dimethylsulfamoyl-phenyl)-furan-2-ylmethylene]-4-oxo-2-thioxo-thiazolidin-3-yl}-cyclohexanecarboxylic acid] showed an IC50 of 11 to 40 µM.

Work on `O=C(O)c1ccccc1NN1C(=O)C(=Cc2ccc(-c3ccccc3Cl)o2)SC1=S` [Compound D1, 2-{5-[1-[5-(2-chloro-phenyl)-furan-2-yl]-methylidene]-4-oxo-2-thioxo-thiazolidin-3-ylamino}-benzoic acid] yielded an IC50 of less than 10 µM.
